Data reported in patent US11339124B2, “3-(benzylamino)-4-(cyclohexylamino)-n-(2-(piperazin-1-yl)ethyl)benzenesulfonamide derivatives and related ferrostatin-1 analogues as cell death inhibitors for treating e.g. stroke” (VIB VZW, priority 2018, dated 2022).

Tests used:
[1] = Plasma stability, human plasma; format: in vitro ADME; settings: 37° C., remaining parent compound, read-out: Plasma stability (% recovery after 6 h), Human
Method: (§1) 5 μl of a 10 mM stock solution of the compound in DMSO was added to 995 μl of plasma to obtain a 50 μM final solution. The mixture was gently shaken for 6 h at 37° C. Aliquots of 100 μl were taken at various time points (0, 0.5 h, 1 h, 2 h, 3 h and 6 h) and diluted with 400 μl of cold methanol (stored at 4° C.). The suspension was centrifuged at 14000 rpm for 5 min. 50 μl of the supernatant was diluted with 950 μl of methanol and analysed with LC/MS/MS. The samples were analysed in triplicate. The experiment was done in duplicate. […] Enalapril maleate was used as a control in mice, rats, and in human.

[2] = Kinetic solubility (turbidimetric method); format: physicochemical; settings: 10 mM PBS pH 7.4, 2% DMSO, test range 3.125-200 μM, 2 h at 37° C.
Method: A turbidimetric method was used. First a series of DMSO compound stock solutions was prepared ([…]). An aliquot of 4 μL stock solution was added to 196 μL PBS buffer (pH 7.4). A series of concentrations were prepared (3.13-200 μM), including a blank on a microtiter plate. (2% DMSO-D6) The microtiter plate was shaken for 10 seconds and incubated for 2 hours at 37° C. When there was no turbidity measured at a given concentration the sample was assumed to be dissolved.

[3] = Plasma stability, mouse plasma; format: in vitro ADME; settings: 37° C., remaining parent compound, read-out: Plasma stability (% recovery after 6 h), Mouse
Method: as §1

[4] = Microsomal (metabolic) stability, rat liver microsomes; settings: for CLint scaled at 10 µM / half-life at 10 µM: rat
Text: (§2) By using the measured microsomal in vitro t1/2, a calculated value for the intrinsic clearance Clint can be determined. This value states the measure in which a drug that is not bound to plasma proteins is irreversibly removed from the body by the liver. This value is expressed in mL/min/kg which can be interpreted as the volume of blood in mL that is cleared of a drug per minute per kilogram of body weight. The CLint is less sensitive to used variables in ADME assays since the amount of microsomal protein and the volume of the incubation are all taken into account. (Sohlenius-Sternbeck et al., Xenobiotica, 2012, 42, 841-853)
(§3) Liver microsomes (20 mg protein/ml), NADPH regenerating system solutions A & B and 5 mM stock compound solution (100% DMSO) are prepared. The reaction mixture finally contains 713 μL purified water, 200 μL 0.5 M potassium phosphate pH 7.4, 50 μL NADPH regenerating system solution A (BD Biosciences Cat. No. 451220), 10 μL NADPH regenerating system solution B (BD Biosciences Cat. No. 451200) and 2 μL of the compound stock solution (10 μM final concentration). The reaction mixture is warmed to 37° C. for 5 minutes in a water bath and the reaction is initiated by addition of 25 μL of liver microsomes (0.5 mg protein/ml final concentration). At different time points (0 min-15 min-30 min-60 min-120 min-240 min-360 min-24 h), 20 μL is withdrawn and 80 μL cold acetonitrile is added on ice for 10 minutes. Then the mixtures are centrifuged at 13 000 rpm for 5 min at 4° C. The supernatant is further diluted in 90% water/MeCN (1/25) to fall within the range of the LC/MS/MS analysis. At each time point, the compound is analysed using LC/MS/MS with the same UPLC system as described above. A standard curve of six points was made to fit the measured concentrations. Verapamil was used as a positive control.
(§4) All obtained readouts were processed using Microsoft Excel. In order to determine the microsomal half-life t1/2 of the compounds, the rate constant k was determined by plotting the exponential decay graphs using GraFit. Microsomal t1/2 was determined using the following formula: […]

[5] = Pharmacokinetics and tissue distribution after single-dose iv injection in mice; format: in vivo; settings: single-dose iv injection (~10 mg/kg)
[6] = as above; format: in vivo; settings: iv ~10 mg/kg; for Tissue distribution profile, levels in organs: 24 h after injection; for Crossing of the blood-brain barrier: brain tissue (FIG. 4), 10 mg/kg
Method: FIG. 4: Tissue distribution of ferrostatin-analogues. Equimolar amounts of Ferrostatin (Fer-1), compound 39 (depicted as UAMC-3203) and compound 38 (depicted as UAMC-3206) (˜10 mg/kg) were injected intravenously 2 h (left panel) or 24 h (right panel) before tissue collection (heart, liver, lung, muscle, kidney and brain). Tissues were collected, snap frozen in liquid nitrogen, homogenized and stored at −80° C. until analysis. The tissue samples for LC-MS were further processed by protein precipitation by diluting 20 μL of the homogenate with 80 μL ACN containing IS (tolbutamide). After centrifugation, the supernatant was further diluted in the appropriate solvent.
The detected levels of UAMC-3203 vary between 3-60 ng/mg tissue depending on the organ, which is up to […] or 6-fold higher than the dose injected.

[7] = system: acute iron poisoning induced organ damage; experiment: Acute iron poisoning (FeSO4) induced organ damage, plasma LDH and creatine kinase; format: in vivo; settings: for Protection against organ damage: plasma lactate dehydrogenase (LDH) and creatine kinase levels, prophylactic setting: ~10 mg/kg iv 15 min before FeSO4 300 mg/kg ip, plasma 2 h after challenge (FIG. 5A); for Protection against organ damage: plasma lactate dehydrogenase (LDH) and creatine kinase levels, therapeutic setting: ~10 mg/kg iv 30 min after FeSO4 300 mg/kg ip, plasma 8 h after challenge (FIG. 5B)
Method: Equimolar amounts of ferroptosis inhibitors (˜10 mg/kg) were injected iv 15 min before ip injection of FeSO4 (300 mg/kg). Plasma was collected 2 h after FeSO4-challenge and analyzed for the presence of lactate dehydrogenase (LDH) and creatine kinase. Fer-1 is ferrostatin, 3234 is compound 37,3206 is compound 38 and 3203 is compound 39 (see Table 1 for numbering and structure). […] Equimolar amounts of ferroptosis inhibitors (˜10 mg/kg) were injected iv 30 min after ip injection of FeSO4 (300 mg/kg). Plasma was collected 8 h after FeSO4-challenge and analyzed for the presence of lactate dehydrogenase (LDH) and creatine kinase.
We identified acute iron poisoning as a novel experimental model for in rhabdomyolysis-induced kidney failure.

[8] = Microsomal (metabolic) stability, human liver microsomes; settings: for Microsomal stability (t1/2), Human / half-life at 10 µM: human liver microsomes, 0.5 mg protein/ml, 10 μM compound, 37° C.; for Microsomal stability (t1/2), Human: Hydrochloride; for CLint scaled at 10 µM / half-life at 10 µM: human, liver microsomes; for CLint scaled at 10 µM: pH 7.4; for half-life at 10 µM: pH 7.4, Microsomal stability (t1/2)
Text: as §2, §3, §4

[9] = Microsomal (metabolic) stability, mouse liver microsomes; settings: pH 7.4
Text: as §2, §3, §4

[10] = liver microsomes, pH 7.4, Microsomal stability (t1/2), rat liver microsomes, 0.5 mg protein/ml, 10 μM compound, 37° C.

Row | Compound | recovery at 6 h, 50 μM [1] [%] | Solubility (kinetic) [2] [µM] | recovery at 6 h, 50 μM [3] [%] | CLint scaled at 10 µM ([4]; liver microsomes, pH 7.4) [mL/min/kg] | Levels in blood [5] | Tissue distribution profile, levels in organs [6] | Protection against organ damage: plasma lactate dehydrogenase (LDH) and creatine kinase levels, prophylactic setting [7] | Protection against organ damage: plasma lactate dehydrogenase (LDH) and creatine kinase levels, therapeutic setting [7] | Microsomal stability (t1/2), Human [8] [h] | CLint scaled at 10 µM [8] [mL/min/kg] | half-life at 10 µM [8] [h] | CLint scaled at 10 µM ([9]; liver microsomes) [mL/min/kg] | half-life at 10 µM ([9]; microsomes) [h] | half-life at 10 µM [4, 10] [h] | further results
1 | Cl.NCCNS(=O)(=O)c1ccc(NC2CCCCC2)c(NCc2ccccc2)c1 [Compound 38, N-(2-aminoethyl)-3-(benzylamino)-4-(cyclohexylamino)benzenesulfonamide Hydrochloride] | 100 | >200 | 100 | 27.4 ± 2.7 | almost undetectable levels in blood | detected in very low levels | more effective | more effective | 17.71 ± 2.04 | 1.3 ± 0.1 | 17.7 | 4.8 ± 1.5 | 13 |  | half-life at 10 µM ([4]; microsomes, pH 7.4): 2.05 h
2 | Cl.O=S(=O)(NCCN1CCNCC1)c1ccc(NC2CCCCC2)c(NCc2ccccc2)c1 [Compound 39, 3-(benzylamino)-4-(cyclohexylamino)-N-(2-(piperazin-1-yl)ethyl)benzenesulfonamide Hydrochloride] | 84.2 | >200 | 100 | 3.4 ± 1 | almost undetectable levels in blood | still present in range of 2- to 100-fold less than the dose injected | more effective | more effective | 20.53 ± 5.49 | 1.1 ± 0.3 | 20.5 | 18 ± 7.1 | 3.46 | 16.5 | Microsomal stability (t1/2), Rat ([4]; rat liver microsomes, 0.5 mg protein/ml, 10 μM compound, 37° C., Hydrochloride): 16.48 ± 4.66 h; Tissue distribution profile compared to -3206 and benchmark Fer-1 ([6]; 2 h after injection): superior profile; Crossing of the blood-brain barrier ([6]; Hydrochloride): efficiently crosses the blood brain barrier; Crossing of the blood-brain barrier ([6]; listed as UAMC-3203, Hydrochloride): seems to cross the blood-brain barrier; concentration at 2 h ([6]; mouse, tissues (heart, liver, lung, muscle, kidney, brain), 2 h after injection, read-out: Detected levels in tissue depending on the organ): 3000 to 60000 ng/g
3 | CNCCNS(=O)(=O)c1ccc(NC2CCCCC2)c(NCc2ccccc2)c1.Cl [Compound 37, 3-(benzylamino)-4-(cyclohexylamino)-N-(2-(methylamino)ethyl)benzenesulfonamide Hydrochloride] | 90.3 | >200 | 100 | 161 ± 4.6 | almost undetectable levels in blood | not detected in any organ | more effective | more effective |  | 1.7 ± 0.5 | 13.2 ± 4.1 | 139 ± 6.2 |  | 0.35 ± 0.01 | half-life at 10 µM ([9]; liver microsomes): 0.45 ± 0.02 h
